Results published in PubChem BioAssay (NCI).
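The compound was tested at five concentrations on cells cultured in 96-well plates, with a 48-hour exposure period. TGI denotes the concentration required for complete inhibition of growth.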

Key:
Test in all cases: growth of human tumour cells (NCI), 48 h
TK-10 renal = test system: TK-10 renal
M14 melanoma = test system: M14 melanoma
U251 CNS = test system: U251 CNS
UO-31 renal = test system: UO-31 renal
RPMI-8226 leukemia = test system: RPMI-8226 leukemia
ACHN renal = test system: ACHN renal
UACC-62 melanoma = test system: UACC-62 melanoma
NCI-H23 lung = test system: NCI-H23 lung
DU-145 prostate = test system: DU-145 prostate
SF-268 CNS = test system: SF-268 CNS
SF-539 CNS = test system: SF-539 CNS
HCT-15 colon = test system: HCT-15 colon
COLO 205 colon = test system: COLO 205 colon
LOX IMVI melanoma = test system: LOX IMVI melanoma
MCF7 breast = test system: MCF7 breast
MDA-N = test system: MDA-N

| Structure (SMILES) | TGI (TK-10 renal) [µM] | TGI (M14 melanoma) [µM] | TGI (U251 CNS) [µM] | TGI (UO-31 renal) [µM] | TGI (RPMI-8226 leukemia) [µM] | TGI (ACHN renal) [µM] | TGI (UACC-62 melanoma) [µM] | TGI (NCI-H23 lung) [µM] | TGI (DU-145 prostate) [µM] | TGI (SF-268 CNS) [µM] | TGI (SF-539 CNS) [µM] | TGI (HCT-15 colon) [µM] | TGI (COLO 205 colon) [µM] | TGI (LOX IMVI melanoma) [µM] | TGI (MCF7 breast) [µM] | TGI (MDA-N) [µM] |
| --- | --- | --- | --- | --- | --- | --- | --- | --- | --- | --- | --- | --- | --- | --- | --- | --- |
| O=C(OC(=C(c1ccccc1)c1ccccc1)N1CCCC1=S)C(c1ccccc1)c1ccccc1 | > 10 | > 10 | > 10 | > 10 | > 10 | > 10 | > 10 | > 10 | > 10 | > 10 | > 10 | > 10 | 5.5 | > 10 | > 10 | – |
| COP1(=O)Oc2ccccc2C(=O)C(C(F)(F)F)(C(F)(F)F)O1 (stereo not given) | > 100 | > 100 | > 100 | > 100 | > 100 | > 100 | > 100 | > 100 | – | > 100 | > 100 | > 100 | > 100 | > 100 | – | – |
| O=C(/C=C/c1ccco1)CC(=O)/C=C/c1ccco1 | 61.2 | > 31.6 | 19.7 | 20.2 | 23.9 | 21 | > 31.6 | 17.4 | – | – | 21.2 | 20.2 | – | 13.8 | 19.2 | 15 |
| OC1CN2CCS[C@H]2C(O)C1O (stereo not given in full) | > 100 | > 100 | > 100 | > 100 | > 100 | > 100 | > 100 | > 100 | > 100 | > 100 | – | > 100 | > 100 | > 100 | – | – |
| CCOC(=O)CCC(NC(=O)Cc1ccc(Oc2nc3ccccc3nc2-c2cccs2)cc1)C(=O)OCC (stereo not given) | 69.2 | > 100 | 87.1 | 72.7 | > 100 | 18.3 | > 100 | > 100 | > 100 | 12.6 | 26.3 | > 100 | > 100 | > 100 | > 100 | – |
| COc1ccc(O)c(C=NCCCN=Cc2cc(OC)ccc2O)c1 | > 100 | > 100 | 56.9 | > 100 | 74.7 | 74.4 | 84.5 | > 100 | 80.5 | – | – | 93.1 | – | – | 56.9 | > 100 |
| Cc1n[nH]c(=O)n1/N=C/c1c[nH]c2ccccc12 | – | > 100 | > 100 | > 100 | > 100 | > 100 | > 100 | > 100 | > 100 | > 100 | > 100 | > 100 | > 100 | – | > 100 | – |
| COc1cccc(/C=C2\CCCCCC2=O)c1 | > 100 | > 100 | > 100 | > 100 | > 100 | > 100 | > 100 | > 100 | > 100 | > 100 | – | > 100 | > 100 | > 100 | – | > 100 |
| CC(CO)C1=CC(C#CCOCc2ccccc2)N(C(=O)Oc2ccccc2)c2ccccc21 (stereo not given) | > 100 | > 100 | > 100 | > 100 | > 100 | 36.3 | 22.9 | 39.8 | > 100 | > 100 | > 100 | 29.7 | 28.4 | > 100 | – | > 100 |
| CCOC(=O)C1=c2[nH]c3cccc4cccc(c43)n2C=C(C(C)=O)C1CC(C)=O (stereo not given) | > 100 | > 100 | > 100 | > 100 | > 100 | > 100 | > 100 | > 100 | > 100 | – | – | > 100 | > 100 | > 100 | > 100 | > 100 |
| O=C(c1cccnc1)N1N=C(c2ccc(Cl)cc2)CC1(O)c1cc(F)c(Cl)cc1Cl (stereo not given) | > 100 | 91.9 | 34.3 | > 100 | 47.6 | 53.8 | – | > 100 | > 100 | 75 | 28.1 | > 100 | 28.7 | 31.2 | – | > 100 |
| CCOP(=O)(C=C=C(C)C)OCC | > 100 | > 100 | > 100 | – | – | > 100 | > 100 | > 100 | > 100 | > 100 | > 100 | > 100 | > 100 | > 100 | > 100 | > 100 |
| O=C(CCc1cccc(O)c1)NCCc1ccc(O)cc1 | > 100 | > 100 | > 100 | > 100 | – | > 100 | > 100 | > 100 | > 100 | > 100 | > 100 | > 100 | > 100 | > 100 | > 100 | > 100 |
| COc1ccc2c(c1)N=C1CSC(c3cc([N+](=O)[O-])ccc3Cl)N1C2 (stereo not given) | 55.4 | 86.8 | 71.2 | 57.9 | 57.6 | 54.1 | 42.1 | 62.4 | – | > 100 | 71.2 | 96.4 | 79.6 | > 100 | 42.6 | > 100 |
| COC(=O)C(Cc1ccccc1)OC(=O)C(N)CC(=O)O (stereo not given) | > 100 | > 100 | – | > 100 | > 100 | > 100 | > 100 | > 100 | > 100 | > 100 | > 100 | > 100 | > 100 | – | > 100 | > 100 |
| CC(C)NCC(O)c1ccc(OCc2ccccc2)c(OCc2ccccc2)c1-c1ccccc1 (stereo not given) | 3.9 | – | – | 7.82 | – | 3.06 | 2.72 | – | 3.14 | 11.8 | 2.98 | 3.22 | 3.2 | 13.8 | 3.22 | 3.1 |
| CN(/N=C/C=N/N(C)C1=NCCCCN1)C1=NCCCCN1 | > 100 | > 100 | > 100 | > 100 | – | > 100 | > 100 | > 100 | – | > 100 | > 100 | > 100 | > 100 | > 100 | > 100 | > 100 |
